The source of these data is patent US20210188843A1, “QUINOLINE COMPOUNDS AND THEIR PREPARATION AND USE AS ANTIMALARIAL AGENTS” (The United States of America,as represented by the …, priority 2018, published 2021).

Converted amounts (≈) assume the structure as drawn. Read-outs that look alike come from different tables or passages of the source.

The nature of data set [1]: Solubility pH 7.4. The data set is classed as physicochemical. Particulars: aqueous buffer.
The subject of data set [2] is Asexual parasites of P. falciparum strain 3D7. As to the kind of experiment: In vitro drug activity on asexual parasites (SYBR Green assay). Particulars: Plasmodium falciparum, P. falciparum 3D7 asexual stage, 72 h, read-out: Asexual EC50. The data set is classed as cell-based. As to the method: Cell culture. Asexual parasites of P. falciparum strain 3D7 were cultured as described previously [Trager W, et al., Journal of Parasitology 2005, 91: 484-486]. Stage III-V gametocytes were selected and enriched with 3-day treatment with 50 mM N-acetylglucosamine (NAG) and the following Percoll density gradient centrifugation after gametocyte production [Tanaka T Q, et al., Molecular and Biochemical Parasitology, 2011, 177: 160-163]. Gametocytes of HB3 and Dd2 strains were produced and then set up for assay in a similar process. HepG2 cells (ATCC, cat. no. 77400) were cultured in 175-cm^2 tissue culture flasks with 30 ml growth medium at 37° C. in a 5% CO2 humidified atmosphere. Growth medium was made with Dulbecco's Modified Eagle Medium with 10% fetal bovine serum (FBS). Growth medium was replaced every other day and cells were passed at 75% confluence.
Asexual parasites of P. falciparum strain 3D7 were cultured as described previously (Trager, W. et al., J. Parasitol. 2005, 91(3): 484-486). Drug activity on asexual stage parasites was tested using a SYBR Green assay as described previously (Eastman, R. T. et al., Antimicrob. Agents Chemother. 2013, 57(1): 425-435; Smilkstein, M. et al., Antimicrob. Agents Chemother. 2004, 48(5): 1803-1806). Briefly, parasites were diluted to 0.5% parasitemia in complete culture medium with 2% hematocrit and drugs diluted in DMSO (<0.5%) and were loaded into a 96-well plate (200 μl/well). No drug and RBC alone wells were included as positive and background controls, respectively, and each testing condition was examined in duplicated. After 72 h incubation under the standard culture condition and a freeze-thaw lysis step at −80° C. and room temperature, 100 μl/well of lysis buffer containing SYBR Green I was added to the parasite culture and incubated for 30 min at room temperature. The fluorescence of each well was measured at 520 nm following excitation at 490 nm using a FLUOstar Optima™ microplate reader (BMG Labtech).
Compounds were screened against gametocytes and asexual parasites as described in Examples 1 and 2.

Data set [3] in a line: Microsomal stability (rat). Particulars: rat microsomes. The data set is classed as in vitro ADME.
The mark [4] stands for this setting: Table 1, read-out: Microsomal Stability (rat) T1/2.
The mark [5] stands for this setting: Table 3, read-out: Microsomal Stability (rat) T1/2.

`N=c1ccc2cnc3ccc(-c4ccc(Cl)cc4)cc3c2n1-c1ccc(C(=O)NC2CC2)cc1` registered a solubility in data set [1] (Table 2) greater than 69 µg/mL. Moreover, the EC50 in data set [2] (Table 2) is 85.7 nM. Besides, the half-life in data set [3] (Table 2, read-out: Microsomal Stability (rat) T1/2) was greater than 30 min.

In turn, `Cn1c(=N)n(-c2ccc(N3CCNCC3)c(C(F)(F)F)c2)c2c3cc(-c4ccc(Cl)cc4)ccc3ncc21` [Compound 72, 8-(4-chlorophenyl)-3-methyl-1-(4-(piperazin-1-yl)-3-(trifluoromethyl)phenyl)-1,3-dihydro-2H-imidazo[4,5-c]quinolin-2-imine] had a solubility in data set [1] (Table 1) of less than 1 µg/mL. Further, the concentration for a half-maximal effect (EC50) in data set [2] (Table 1) came out at 258 nM. Also, the half-life in data set [3] (setting [4]) is greater than 30 min.

As for `Cc1ccc(C#N)cc1-n1/c(=N/S(C)(=O)=O)n(C)c2cnc3ccc(-c4ccc(Cl)cc4)cc3c21` [Compound 20, (E)-N-(8-(4-chlorophenyl)-1-(5-cyano-2-methylphenyl)-3-methyl-1,3-dihydro-2H-imidazo[4,5-c]quinolin-2-ylidene)methanesulfonamide], the solubility in data set [1] (Table 1) is less than 1 µg/mL. The EC50 in data set [2] (Table 1) came to 6.28 nM. Further, the half-life in data set [3] (setting [4]) was greater than 30 min.

The molecule `Cc1c(C#N)cccc1-n1c(=N)n(C)c2cnc3ccc(-c4ccc(Cl)cc4)cc3c21` [Compound 69, 3-(8-(4-chlorophenyl)-2-imino-3-methyl-2,3-dihydro-1H-imidazo[4,5-c]quinolin-1-yl)-2-methylbenzonitrile] came in with a solubility in data set [1] (Table 1) of less than 1 µg/mL. Moreover, in data set [2] (Table 1), the EC50 was determined as 207 nM. The half-life in data set [3] (setting [4]) was greater than 30 min.

In data set [1] (Table 1), `CCc1ccc(C#N)cc1-n1c(=N)n(C)c2cnc3ccc(-c4ccc(Cl)cc4)cc3c21` [Compound 7, 3-(8-(4-chlorophenyl)-2-imino-3-methyl-2,3-dihydro-1H-imidazo[4,5-c]quinolin-1-yl)-4-ethylbenzonitrile] gave a solubility of 3.4 µg/mL (≈ 7.76 µM). In data set [2] (Table 1), the EC50 worked out at 360 nM. Besides, the half-life in data set [3] (setting [4]) is greater than 30 min.

In turn, `CCOc1ccc(C#N)cc1-n1c(=N)n(C)c2cnc3ccc(-c4ccc(Cl)cc4)cc3c21` [Compound 19, 3-(8-(4-chlorophenyl)-2-imino-3-methyl-2,3-dihydro-1H-imidazo[4,5-c]quinolin-1-yl)-4-ethoxybenzonitrile] returned a solubility in data set [1] (Table 1) of 26 µg/mL (≈ 57.3 µM). Moreover, in data set [2] (Table 1), the 50% effective concentration (EC50) is 778 nM. Also, the half-life in data set [3] (setting [4]) is greater than 30 min.

`Cn1c(=N)n(C2CCN(C3CCNCC3)CC2)c2c3cc(-c4ccc(Cl)cc4)ccc3ncc21` [Compound 97, 1-([1,4′-bipiperidin]-4-yl)-8-(4-chlorophenyl)-3-methyl-1,3-dihydro-2H-imidazo[4,5-c]quinolin-2-imine] registered a solubility in data set [1] (Table 1) greater than 47 µg/mL. The concentration giving a half-maximal response (EC50) in data set [2] (Table 1) amounted to 5100 nM. Further, the half-life in data set [3] (setting [4]) was greater than 30 min.

In the case of `CCCC/N=c1\n(C)c2cnc3ccc(-c4ccc(Cl)cc4)cc3c2n1-c1cc(C#N)ccc1C` [Compound 17, (E)-3-(2-(butylimino)-8-(4-chlorophenyl)-3-methyl-2,3-dihydro-1H-imidazo[4,5-c]quinolin-1-yl)-4-methylbenzonitrile], in data set [1] (Table 1), the concentration in solution (solubility) came to 1.1 µg/mL (≈ 2.29 µM). Also, the EC50 in data set [2] (Table 1) came out at 542 nM. For the same molecule, the half-life in data set [3] (setting [4]) is greater than 30 min.

For `Cn1c(=N)n(-c2cccc(S(N)(=O)=O)c2)c2c3cc(-c4ccc(Cl)cc4)ccc3ncc21` [Compound 77, 3-(8-(4-chlorophenyl)-2-imino-3-methyl-2,3-dihydro-1H-imidazo[4,5-c]quinolin-1-yl)benzenesulfonamide], the solubility in data set [1] (Table 1) turned out to be 6.2 µg/mL (≈ 13.4 µM). For the same molecule, the EC50 in data set [2] (Table 1) was 1400 nM. In addition, the half-life in data set [3] (setting [4]) is greater than 30 min.

Turning to `Cc1cc(N2CCNC(C)C2)c(C#N)cc1-n1c(=N)n(C)c2cnc3ccc(-c4ccc(Cl)cc4)cc3c21` (stereo not drawn) [Compound 124, 5-(8-(4-chlorophenyl)-2-imino-3-methyl-2,3-dihydro-1H-imidazo[4,5-c]quinolin-1-yl)-4-methyl-2-(3-methylpiperazin-1-yl)benzonitrile], the concentration in solution in data set [1] (Table 1) (solubility) was 1.9 µg/mL (≈ 3.64 µM). Further, in data set [2] (Table 1), the EC50 was determined as 217 nM. For the same molecule, the half-life in data set [3] (setting [4]) was greater than 30 min.

Regarding `Cc1cc(N2CCN(CCO)CC2)c(C#N)cc1-n1c(=N)n(C)c2cnc3ccc(-c4ccc(Cl)cc4)cc3c21` [Compound 115, 5-(8-(4-chlorophenyl)-2-imino-3-methyl-2,3-dihydro-1H-imidazo[4,5-c]quinolin-1-yl)-2-(4-(2-hydroxyethyl)piperazin-1-yl)-4-methylbenzonitrile], in data set [1] (Table 1), the solubility is greater than 55 µg/mL. In data set [2] (Table 1), the EC50 came out at 125 nM. In data set [3] (setting [4]), the half-life was greater than 30 min.

For `Cc1ccc(C#N)cc1-n1c(=N)n(C)c2cnc3ccc(-c4ccccc4Cl)cc3c21` [Compound 62, 3-(8-(2-chlorophenyl)-2-imino-3-methyl-2,3-dihydro-1H-imidazo[4,5-c]quinolin-1-yl)-4-methylbenzonitrile], the concentration in solution in data set [1] (Table 1) (solubility) came to 7.8 µg/mL (≈ 18.4 µM). Besides, the EC50 in data set [2] (Table 1) was 704 nM. In addition, the half-life in data set [3] (setting [4]) turned out to be 18.5 min.

The molecule `Cc1ccc(S(=O)(=O)/N=c2\n(C)c3cnc4ccc(-c5ccc(Cl)cc5)cc4c3n2-c2cc(C#N)ccc2C)cc1` [Compound 16, (E)-N-(8-(4-chlorophenyl)-1-(5-cyano-2-methylphenyl)-3-methyl-1,3-dihydro-2H-imidazo[4,5-c]quinolin-2-ylidene)-4-methylbenzenesulfonamide] registered a solubility in data set [1] (Table 1) of less than 1 µg/mL. The EC50 in data set [2] (Table 1) is 240 nM. The half-life in data set [3] (setting [4]) came to 10.4 min.

Regarding `Cn1c(=N)n(-c2cccc(S(C)(=O)=O)c2)c2c3cc(-c4ccc(Cl)cc4)ccc3ncc21` [Compound 75, 8-(4-chlorophenyl)-3-methyl-1-(3-(methylsulfonyl)phenyl)-1,3-dihydro-2H-imidazo[4,5-c]quinolin-2-imine], in data set [1] (Table 1), the solubility is 11.7 µg/mL (≈ 25.3 µM). Besides, the EC50 in data set [2] (Table 1) came out at 1020 nM. Besides, the half-life in data set [3] (setting [4]) is greater than 30 min.

For `Cn1c(=N)n(-c2nccc(O)n2)c2c3cc(-c4cccc(F)c4)ccc3ncc21`, the solubility in data set [1] (Table 3) was less than 1 µg/mL. For the same molecule, in data set [2] (Table 3), the EC50 is 18800 nM. Besides, the half-life in data set [3] (setting [5]) was greater than 30 min.

The molecule `Cc1ncncc1-n1c(=N)n(C)c2cnc3ccc(-c4ccc(N)nc4)cc3c21` returned a solubility in data set [1] (Table 3) greater than 38 µg/mL. Moreover, in data set [2] (Table 3), the EC50 came out at 164 nM. The half-life in data set [3] (setting [5]) was greater than 30 min.

With `Cc1cc(N2CC(C)OC(C)C2)c(C#N)cc1-n1c(=N)n(C)c2cnc3ccc(-c4ccc(Cl)cc4)cc3c21` (stereo not drawn) [Compound 117, 5-(8-(4-chlorophenyl)-2-imino-3-methyl-2,3-dihydro-1H-imidazo[4,5-c]quinolin-1-yl)-2-(2,6-dimethylmorpholino)-4-methylbenzonitrile], in data set [1] (Table 1), the solubility was less than 1 µg/mL. In addition, in data set [2] (Table 1), the concentration for a half-maximal effect (EC50) is 373 nM. Besides, in data set [3] (setting [4]), the half-life is greater than 30 min.

The molecule `CCn1c(=N)n(-c2cc(C#N)ccc2C)c2c3cc(-c4ccc(Cl)cc4)ccc3ncc21` [Compound 93, 3-(8-(4-chlorophenyl)-3-ethyl-2-imino-2,3-dihydro-1H-imidazo[4,5-c]quinolin-1-yl)-4-methylbenzonitrile] came in with a solubility in data set [1] (Table 1) of 13.6 µg/mL (≈ 31.1 µM). Moreover, the concentration for a half-maximal effect (EC50) in data set [2] (Table 1) worked out at 813 nM. In data set [3] (setting [4]), the half-life is greater than 30 min.

In data set [1] (Table 1), `Cc1nc(N2CCOCC2)c(C#N)cc1-n1c(=N)n(C)c2cnc3ccc(-c4cccc(F)c4)cc3c21` [Compound 142, 5-(8-(3-fluorophenyl)-2-imino-3-methyl-2,3-dihydro-1H-imidazo[4,5-c]quinolin-1-yl)-6-methyl-2-morpholinonicotinonitrile] displayed a solubility greater than 49 µg/mL. Further, the half-maximal effective concentration (EC50) in data set [2] (Table 1) is 225 nM. Besides, the half-life in data set [3] (setting [4]) was greater than 30 min.

`COc1ccc(-c2ccc3ncc4c(c3c2)n(-c2cc(C#N)ccc2C)c(=N)n4C)cn1` [Compound 103, 3-(2-imino-8-(6-methoxypyridin-3-yl)-3-methyl-2,3-dihydro-1H-imidazo[4,5-c]quinolin-1-yl)-4-methylbenzonitrile]: in data set [1] (Table 1), the solubility is greater than 42 µg/mL. In addition, in data set [2] (Table 1), the half-maximal effective concentration (EC50) came to 163 nM. Further, the half-life in data set [3] (setting [4]) is greater than 30 min.

As for `Cn1c(=N)n(-c2ccnc(N)n2)c2c3cc(-c4cccc(F)c4)ccc3ncc21`, the solubility in data set [1] (Table 3) was 20.9 µg/mL (≈ 54.2 µM). Further, the EC50 in data set [2] (Table 3) came out at 523 nM. For the same molecule, the half-life in data set [3] (setting [5]) is greater than 30 min.

Regarding `Cn1c(=N)n(C2CCCCC2)c2c3cc(-c4ccc(Cl)cc4)ccc3ncc21` [Compound 102, 8-(4-chlorophenyl)-1-cyclohexyl-3-methyl-1,3-dihydro-2H-imidazo[4,5-c]quinolin-2-imine], in data set [1] (Table 1), the solubility was determined as 22.3 µg/mL (≈ 57 µM). For the same molecule, the half-maximal effective concentration (EC50) in data set [2] (Table 1) stood at 4780 nM. Besides, the half-life in data set [3] (setting [4]) is greater than 30 min.

A word on the solubility: it is how much of the substance goes into solution per volume. Usually EC50 stands for the concentration that produces a half-maximal response.
